Values after ≈ are worked out from the molar mass of the structure shown.
Key:
Assay in all cases: in vitro antibacterial evaluation, MIC by broth dilution
Type in all cases: cell-based
Staphylococcus sp. = settings: broth dilution, 18 hours at 35° C.
Method in brief: (§1)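 Step 1: dilute antibiotic across 64-0.06 μg/mL in Muller-Hinton II […]. Step 2: inoculate at 5×10^5 CFU/mL.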

Streptococcus sp. = settings: broth dilution, 18 hours at 35° C.
Method in brief: as §1

Enterococcus sp. = settings: broth dilution, 18 hours at 35° C.
Method in brief: as §1

Escherichia coli = settings: 18 hours at 35° C.

- MIC Staphylococcus aureus (ATCC 29213) (Staphylococcus sp.; strain ATCC 29213): 2 µg/mL (≈ 1.4 µM)
- MIC Staphylococcus aureus (GC 1131) (Staphylococcus sp.; strain GC 1131): 1 µg/mL (≈ 0.7 µM)
- MIC Staphylococcus aureus (GC 3051) (Staphylococcus sp.; strain GC 3051): 32 µg/mL (≈ 22.4 µM)
- MIC Staphylococcus aureus (GC 3053) (Staphylococcus sp.; strain GC 3053): 2 µg/mL (≈ 1.4 µM)
- MIC Staphylococcus aureus (GC 4541) (Staphylococcus sp.; strain GC 4541): 2 µg/mL (≈ 1.4 µM)
- MIC Staphylococcus aureus (GC 4542) (Staphylococcus sp.; strain GC 4542): 1 µg/mL (≈ 0.7 µM)
- MIC Staphylococcus aureus-SMITH (GC 4543) (Staphylococcus sp.; strain GC 4543): 0.5 µg/mL (≈ 0.35 µM)
- MIC Staphylococcus aureus (GC 4544) (Staphylococcus sp.; strain GC 4544): 1 µg/mL (≈ 0.7 µM)
- MIC Staphylococcus aureus (GC 4545) (Staphylococcus sp.; strain GC 4545): 2 µg/mL (≈ 1.4 µM)
- MIC Coagulase Negative Staphylococcus (GC 4547) (Staphylococcus sp.; strain GC 4547): 1 µg/mL (≈ 0.7 µM)
- MIC Coagulase Negative Staphylococcus (GC 4548) (Staphylococcus sp.; strain GC 4548): 1 µg/mL (≈ 0.7 µM)
- MIC Coagulase Negative Staphylococcus (GC 4549) (Staphylococcus sp.; strain GC 4549): 0.5 µg/mL (≈ 0.35 µM)
- MIC Coagulase Negative Staphylococcus (GC 4551) (Staphylococcus sp.; strain GC 4551): 1 µg/mL (≈ 0.7 µM)
- MIC Streptococcus agalactiae (GC 4564) (Streptococcus sp.): <0.12 µg/mL
- MIC Streptococcus pneumoniae (ATCC 6301) (Streptococcus sp.): <0.12 µg/mL
- MIC Streptococcus pneumoniae (GC 1894) (Streptococcus sp.): <0.12 µg/mL
- MIC Streptococcus pneumoniae (GC 4565) (Streptococcus sp.): <0.12 µg/mL
- MIC Streptococcus pyogenes (GC 4563) (Streptococcus sp.): <0.12 µg/mL
- MIC Streptococcus pneumoniae (ATCC 6301) (Streptococcus sp.; inoculum 5×10^5 CFU/mL, strain ATCC 6301): <0.12 µg/mL
- MIC Streptococcus pneumoniae (GC 1894) (Streptococcus sp.; inoculum 5×10^5 CFU/mL, strain GC 1894): <0.12 µg/mL
- MIC Streptococcus pyogenes (GC 4563) (Streptococcus sp.; inoculum 5×10^5 CFU/mL, strain GC 4563): <0.12 µg/mL
- MIC Streptococcus agalactiae (GC 4564) (Streptococcus sp.; inoculum 5×10^5 CFU/mL, strain GC 4564): <0.12 µg/mL
- MIC Streptococcus pneumoniae (GC 4565) (Streptococcus sp.; inoculum 5×10^5 CFU/mL, strain GC 4565): <0.12 µg/mL
- MIC Enterococcus avium (GC 4558) (Enterococcus sp.): 2 µg/mL (≈ 1.4 µM)
- MIC Enterococcus faecalis (ATCC 29212) (Enterococcus sp.): 2 µg/mL (≈ 1.4 µM)
- MIC Enterococcus faecalis (GC 2242) (Enterococcus sp.): 2 µg/mL (≈ 1.4 µM)
- MIC Enterococcus faecalis (GC 2691) (Enterococcus sp.): 2 µg/mL (≈ 1.4 µM)
- MIC Enterococcus faecalis (GC 3059) (Enterococcus sp.): 2 µg/mL (≈ 1.4 µM)
- MIC Enterococcus faecalis (GC 4552) (Enterococcus sp.): 2 µg/mL (≈ 1.4 µM)
- MIC Enterococcus faecalis (GC 4553) (Enterococcus sp.): 2 µg/mL (≈ 1.4 µM)
- MIC Enterococcus faecalis (GC 4554) (Enterococcus sp.): 2 µg/mL (≈ 1.4 µM)
- MIC Enterococcus faecalis (GC 6189) (Enterococcus sp.): 2 µg/mL (≈ 1.4 µM)
- MIC Enterococcus faecium (GC 2243) (Enterococcus sp.): 1 µg/mL (≈ 0.7 µM)
- MIC Enterococcus faecium (GC 4556) (Enterococcus sp.): 2 µg/mL (≈ 1.4 µM)
- MIC Enterococcus faecium (GC 4557) (Enterococcus sp.): 2 µg/mL (≈ 1.4 µM)
- MIC Enterococcus faecalis (ATCC 29212) (Enterococcus sp.; inoculum 5×10^5 CFU/mL, strain ATCC 29212): 2 µg/mL (≈ 1.4 µM)
- MIC Enterococcus faecalis (GC 2242) (Enterococcus sp.; inoculum 5×10^5 CFU/mL, strain GC 2242): 2 µg/mL (≈ 1.4 µM)
- MIC Enterococcus faecium (GC 2243) (Enterococcus sp.; inoculum 5×10^5 CFU/mL, strain GC 2243): 1 µg/mL (≈ 0.7 µM)
- MIC Enterococcus faecalis (GC 2691) (Enterococcus sp.; inoculum 5×10^5 CFU/mL, strain GC 2691): 2 µg/mL (≈ 1.4 µM)
- MIC Enterococcus faecalis (GC 3059) (Enterococcus sp.; inoculum 5×10^5 CFU/mL, strain GC 3059): 2 µg/mL (≈ 1.4 µM)
- MIC Enterococcus faecalis (GC 4552) (Enterococcus sp.; inoculum 5×10^5 CFU/mL, strain GC 4552): 2 µg/mL (≈ 1.4 µM)
- MIC Enterococcus faecalis (GC 4553) (Enterococcus sp.; inoculum 5×10^5 CFU/mL, strain GC 4553): 2 µg/mL (≈ 1.4 µM)
- MIC Enterococcus faecalis (GC 4554) (Enterococcus sp.; inoculum 5×10^5 CFU/mL, strain GC 4554): 2 µg/mL (≈ 1.4 µM)
- MIC Enterococcus faecium (GC 4556) (Enterococcus sp.; inoculum 5×10^5 CFU/mL, strain GC 4556): 2 µg/mL (≈ 1.4 µM)
- MIC Enterococcus faecium (GC 4557) (Enterococcus sp.; inoculum 5×10^5 CFU/mL, strain GC 4557): 2 µg/mL (≈ 1.4 µM)
- MIC Enterococcus avium (GC 4558) (Enterococcus sp.; inoculum 5×10^5 CFU/mL, strain GC 4558): 2 µg/mL (≈ 1.4 µM)
- MIC Enterococcus faecalis (GC 6189) (Enterococcus sp.; inoculum 5×10^5 CFU/mL, strain GC 6189): 2 µg/mL (≈ 1.4 µM)
- MIC Escherichia coli (ATCC 25922) (Escherichia coli): 64 µg/mL (≈ 44.8 µM)
- MIC Escherichia coli (GC 4559) (Escherichia coli): 64 µg/mL (≈ 44.8 µM)
- MIC Escherichia coli (GC 4560) (Escherichia coli): 2 µg/mL (≈ 1.4 µM)
SMILES: CC(c1ccccc1)C1NC(=O)CNC(=O)C(CO)NC(=O)C(C(O)C2CNC(=N)N2C2OC(CO)C(O)C(O)C2O)NC(=O)C(C(O)C2CNC(=N)N2)NC(=O)C(Cc2ccc(OC3OC(CO)C(OC4OC5COC6(CC7CCC6(C)C7(C)C)OC5C(O)C4O)C(O)C3O)cc2)NC1=O (stereo not drawn) [Example 214]
- MIC Staphylococcus haemolyticus (GC 4546) (Staphylococcus sp.; strain GC 4546): 1 µg/mL (≈ 0.7 µM)

From US6914045B2, “Glycopeptide antibiotics” (Wyeth Holdings Corporation, priority 2001, dated 2005)
